These results are taken from patent US20250346584A1, “NOVEL KAPPA OPIOID LIGANDS” (The Scripps Research Institute, priority 2012, published 2025).

Structures are written as SMILES.

The assay deals with kappa opioid receptor (OPRK1) (Homo sapiens (Human), UniProt P41145). The assay is described as follows: OPRK1 antagonist assay (b-arrestin-2-TEV / b-lactamase reporter cell line, EC80 U-50488 challenge). In kind it is cell-based. Particulars: read-out: IC50 nM (% inhib if other than 50%); antagonist mode vs EC80 U-50488; NA = not active at concentrations up to 10 μM.
Chain of kappa opioid receptor (OPRK1) (P41145 whole entry): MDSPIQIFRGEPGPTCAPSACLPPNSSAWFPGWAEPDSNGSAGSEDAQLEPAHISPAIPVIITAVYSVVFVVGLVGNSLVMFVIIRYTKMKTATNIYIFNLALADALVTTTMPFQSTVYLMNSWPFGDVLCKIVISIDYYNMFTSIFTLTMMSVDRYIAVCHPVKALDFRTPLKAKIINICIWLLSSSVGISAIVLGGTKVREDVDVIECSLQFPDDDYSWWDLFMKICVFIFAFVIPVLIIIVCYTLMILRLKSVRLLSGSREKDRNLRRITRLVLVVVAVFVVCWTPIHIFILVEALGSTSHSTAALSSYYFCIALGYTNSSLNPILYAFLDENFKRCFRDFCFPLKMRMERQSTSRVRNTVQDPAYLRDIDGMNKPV
Take `COC(=O)c1cc(Br)cnc1N1CCC(NC2CCCCC2)C(CO)C1` (centres unmarked) [compound 68]: the IC50 turned out to be 40 nM.

On to `CCOC(=O)c1cc(C#N)c(C)nc1N1CCC(NC2CCCCC2)C(O)C1` (centres unmarked) [C53], for which the IC50 came to 13000 nM.

For the molecule `COC(=O)c1cc(I)cnc1N1CCC(NC2CCCCC2)C(O)C1` (centres unmarked) [compound 42], the IC50 amounted to 18 nM.

For the molecule `CO[C@@H]1CN(c2ncc(C)cc2C(=O)OC(C)C)CC[C@@H]1NC1CCCCC1` [compound 361], the IC50 was determined as 1440 nM.

In the case of `Cc1ccc2nc(N3CCC(NC4CC5CCC4C5)CC3)c(-c3nc(C)no3)cc2c1` (centres unmarked) [compound 265], the IC50 came to 49 nM.

For the molecule `CCOC(=O)c1cccnc1N1CCC(NC2CCCCC2)C1` (centres unmarked) [compound 25], the IC50 stood at 1200 nM.

Consider `Cc1noc(-c2cc(C)c(C)nc2N2CCC(NC3CCCCC3C)C(CO)C2)n1` (centres unmarked) [compound 224], for which the IC50 amounted to 17 nM.

On to `OCC1CN(c2ncc(Br)cc2-c2nc(C3CC3)no2)CCC1NC1CCCCC1` (centres unmarked) [compound 151], for which the IC50 was 2100 nM.

As for `Cc1noc(-c2cc(C)c(C)nc2N2CCC(NC3CCCCC3)C(CO)C2)n1` (centres unmarked) [compound 164], the IC50 stood at 62 nM.

`COC(=O)c1cc(Br)cnc1N1CCC(NC2CCCCC2)C(C)(C)C1` (centres unmarked) [compound 63]: the IC50 worked out at 234 nM.

For the molecule `COC(=O)c1cc(Br)cnc1N1CC2CN(C3CCCCC3)CC2C1` (centres unmarked) [compound 49], the IC50 was determined as 1300 nM.

Consider `COC(=O)c1cc(Br)cnc1N1CCCC(NC2CCCCC2)CC1` (centres unmarked) [compound 66], for which the IC50 is 1700 nM.

With `Cc1ccc2nc(N3CCC(NC4CCC[C@@H]4O)CC3)c(-c3noc(C)n3)cc2c1` (some centres unmarked) [compound 440], the IC50 turned out to be 70 nM.

As for `Cc1nc(-c2cc3ccc(F)cc3nc2N2CCC(NC3CCOCC3)CC2)no1` [compound 482], the IC50 worked out at 75 nM.

As to `Cc1ccc2nc(N3CCC(NC4CCCCC4)C(CO)C3)c(-c3nc(C4CC4)no3)cc2c1` (centres unmarked) [compound 304], the IC50 stood at 3.5 nM.

With `Cc1ccc2nc(N3CCC(NC4CCCOC4)CC3)c(-c3nc(C)no3)cc2c1` (centres unmarked) [compound 247], the IC50 is 4 nM.

Consider `Cc1noc(-c2cc(Br)cnc2N2CC[C@@H](NC3CCCCC3)[C@H](O)C2)n1` [compound 136], for which the IC50 was 49 nM.

As to `Cc1noc(-c2cc3cccc(C)c3nc2N2CCC(NC3CCOCC3)CC2)n1` [compound 275], the IC50 was 98 nM.

`Cc1noc(-c2cc3ccc(Cl)cc3nc2N2CCC(NC3CCCCC3)CC2)n1` [compound 536]: the IC50 is 19 nM.

Take `CCc1cnc(N2CC[C@@H](NC3CCCCC3)[C@H](O)C2)c(-c2nc(C)no2)c1` [compound 156]: the IC50 amounted to 1000 nM.

For `CCOC(=O)c1cc(Br)cnc1N1CCC(NC2CCCCC2)CC1` [compound 38], the IC50 is 128 nM.

`CO[C@H]1CN(c2nc3ccc(C)cc3cc2-c2ccc(C)o2)CC[C@H]1NC1CCCCC1` [compound 497]: the IC50 turned out to be 48 nM.

In the case of `Cc1nc(-c2cc3ccc(F)c(C)c3nc2N2CCC(NC3CCOCC3)CC2)no1` [compound 511], the IC50 was determined as 227 nM.

With `Cc1noc(-c2nc3ccccc3nc2N2CC[C@@H](NC3CCCCC3)[C@H](O)C2)n1` [compound 188], the IC50 was 187 nM.

Consider `COC(=O)c1cc(Br)cnc1N1CCC(NC2CCCC2)C(C(=O)OC)C1` (centres unmarked) [compound 114], for which the IC50 was found to be 1200 nM.

Turning to `Cc1cnc(N2CCC(NC3CCCCC3)C(CO)C2)c(-c2nc(C)no2)c1` (centres unmarked) [compound 152], the IC50 amounted to 30 nM.

For the molecule `Cc1ccc2nc(N3CCC(NC4CCC(O)CC4)CC3)c(-c3nc(C)no3)cc2c1` (centres unmarked) [compound 246], the IC50 is 51 nM.

As for `CC(=O)c1cc(Br)cnc1N1CCC(NC2CCCCC2)C(CO)C1` (centres unmarked) [compound 97], the IC50 came out at 2000 nM.

For the molecule `COC(=O)c1cc(C)cnc1N1CCC(NC2CCCCC2)CC1` [compound 108], the IC50 turned out to be 404 nM.

`COC1CN(c2nc3ccccc3cc2-c2cnc(C)cn2)CCC1NC1CCCCC1` (centres unmarked) [compound 465]: the concentration for half-maximal inhibition (IC50) turned out to be 18 nM.

As to `Cc1ccc2nc(N3CCC(NC4CCC(F)(F)CC4)CC3)c(-c3noc(C)n3)cc2c1` [compound 436], the IC50 is 26 nM.

In the case of `CCCC(C)NC1CCN(c2nc3ccc(C)cc3cc2-c2nc(C)no2)CC1` (centres unmarked) [compound 351], the IC50 is 3 nM.

Consider `Cc1noc(-c2nc3ccccc3nc2N2CCC(NC3CCCCC3)C(CO)C2)n1` (centres unmarked) [compound 189], for which the concentration for half-maximal inhibition (IC50) amounted to 125 nM.

On to `Cc1cnc(N2CCC(NC3CCCCCC3)C(CO)C2)c(-c2nc(C)no2)c1` (centres unmarked) [compound 197], for which the IC50 was found to be 85 nM.

On to `Cc1noc(-c2cc3ccccc3nc2N2CCC(CO)(NC3CCCCC3)CC2)n1` [compound 222], for which the IC50 was found to be 163 nM.

On to `Cc1noc(-c2cc(C)c(C)nc2N2CCC(NC3CCCCC3)CC2)n1` [compound 221], for which the IC50 was 24 nM.

As for `COC1CN(c2nc(CO)ccc2-c2nc(C)no2)CCC1NC1CCCCC1` (centres unmarked) [compound 425], the IC50 is 60 nM.

Consider `Cc1ccc2nc(N3CCC(NC4CCCCC4)C3)c(-c3nc(C)no3)cc2c1` (centres unmarked) [compound 461], for which the IC50 is 52 nM.

As to `COC(=O)c1cc(Br)cnc1N1CCC(NC2CCCC2)CC1` [compound 24], the IC50 was 120 nM.

`Cc1ccc2nc(N3CCC(NCC4CC4)CC3)c(-c3noc(C)n3)cc2c1` [compound 434]: the IC50 is 43 nM.

On to `COC1CCCCC1NC1CCN(c2ncc(C)cc2-c2nc(C)no2)CC1CO` (centres unmarked) [compound 196], for which the IC50 turned out to be 414 nM.

On to `COC1CN(c2nc3cccc(F)c3cc2-c2nc(C)no2)CCC1NC1CCCCC1` (centres unmarked) [compound 252], for which the IC50 was 12 nM.

As for `COC(=O)c1cc(Br)cnc1N1CCC(NC2CCCCC2)C1` (centres unmarked) [compound 14], the IC50 was found to be 185 nM.

Regarding `CCOC(=O)c1cc(Br)cnc1N1CC[C@H](NC2CCCCC2)[C@@H](O)C1` [compound 540], the IC50 was found to be 16 nM.

Take `Cc1noc(-c2cc3cc(C)c(C)cc3nc2N2CCC(NC3CCCCC3)C(CO)C2)n1` (centres unmarked) [compound 307]: the IC50 stood at 41 nM.

In the case of `CCOC(=O)c1cc2cc(C)ccc2nc1N1CCC(NC2CCOCC2)CC1` [compound 289], the concentration for half-maximal inhibition (IC50) is 184 nM.

Take `Cc1ccc2cc(-c3nc(C)no3)c(N3CC[C@@H](NC4CCCCC4)[C@H](O)C3)nc2c1` [compound 227]: the IC50 came out at 7 nM.

As for `Cc1ccc2nc(N3CCC(NC4CCCCC4)C(CO)C3)c(-c3nc(C)no3)cc2c1` (centres unmarked) [compound 215], the IC50 worked out at 3 nM.

As for `COC(=O)c1cc(Cl)cnc1N1CCC(NC2CCCCC2)C(O)C1` (centres unmarked) [compound 43], the IC50 is 52 nM.

As to `COC1CN(c2nc3cc(C)ccc3cc2-c2nc(C)no2)CCC1NC1CCCCC1` (centres unmarked) [compound 228], the IC50 is 21 nM.

Take `Cc1ccc2nc(N3CCC(NCC4CCCCC4)CC3)c(-c3nc(C)no3)cc2c1` [compound 261]: the IC50 amounted to 1470 nM.

As to `Cc1nc(-c2cc3ccc(F)c(C)c3nc2N2CCC(NC3CCCC3)CC2)no1` [compound 504], the IC50 worked out at 45 nM.

Regarding `Cc1ccc2nc(N3CCC(NC4CCCCC4)C(CO)C3)c(C(=O)N(C)C)cc2c1` (centres unmarked) [compound 280], the IC50 was 99 nM.

On to `COC(=O)c1cc(F)cnc1N1CCC(NC2CCCCC2)CC1` [compound 72], for which the IC50 came to 6600 nM.

As to `COC(=O)c1cccnc1N1CCC(NC2CCCCCC2)C(O)C1` (centres unmarked) [compound 55], the IC50 worked out at 1800 nM.

Take `COC(=O)c1cc(C)cnc1N1CCC(NC2CCCCC2)C(O)C1` (centres unmarked) [compound 110]: the IC50 was determined as 108 nM.

For the molecule `CCC(CC)NC1CCN(c2nc3ccccc3cc2-c2nc(C)no2)CC1` [compound 237], the IC50 came out at 8 nM.

On to `COC(=O)c1cc(Br)cnc1N1CCC(NC2CCCCCC2)C(CO)C1` (centres unmarked) [compound 74], for which the IC50 is 58 nM.

As for `CCOC(=O)c1cc(C(=O)OC)c(C)nc1N1CCC(NC2CCCCC2)C(CO)C1` (centres unmarked) [compound 93], the IC50 is 621 nM.

In the case of `COC(=O)c1cc(Br)cnc1N1CCC(O)C(NC2CCCCC2)C1` (centres unmarked) [compound 47], the IC50 worked out at 2800 nM.

For the molecule `COC(=O)c1cc(Br)cnc1N1CCC(NC2CC3CCC2(C)C3(C)C)CC1` (centres unmarked) [compound 22], the IC50 came to 10000 nM.

Consider `COC1CN(c2nc3ccc(C)cc3cc2C(=O)N2CCCC2)CCC1NC1CCCCC1` (centres unmarked) [compound 323], for which the IC50 was 1340 nM.

As to `CO[C@@H]1CN(c2nc3cc(F)ccc3cc2-c2nc(C)no2)CC[C@@H]1NC1CCCCC1` [compound 514], the IC50 worked out at 55 nM.

Turning to `COC(=O)c1cc(Br)cnc1N1CCC(NC2CCCCC2)C(OC(C)=O)C1` (centres unmarked) [C49], the IC50 is 17000 nM.

As for `Cc1ccc2nc(N3CCC(NC4(C)CCOCC4)CC3)c(-c3nc(C)no3)cc2c1` [compound 271], the IC50 is 419 nM.

Turning to `COC1CN(c2nc3ccccc3cc2-c2nc(C)no2)CCC1NC1CCCCC1` (centres unmarked) [compound 176], the concentration for half-maximal inhibition (IC50) amounted to 28 nM.

For the molecule `COC1CN(c2nc3ccc(F)cc3cc2-c2nc(C)no2)CCC1NC1CCCCC1` (centres unmarked) [compound 242], the IC50 was 26 nM.

`Cc1noc(-c2cc3ccccc3nc2N2CCC(NC3CCCCC3O)CC2)n1` (centres unmarked) [compound 230]: the IC50 amounted to 9 nM.

In the case of `Cc1ccc2nc(N3CCC(NCC(C)(C)O)CC3)c(-c3nc(C)no3)cc2c1` [compound 402], the half-maximal inhibitory concentration (IC50) amounted to 16 nM.

`Cc1cc(-c2nc(C3CC3)no2)c(N2CCC(NCC(C)C)CC2)nn1` [compound 509]: the IC50 amounted to 30 nM.

For the molecule `COC(=O)c1cc(Br)cnc1N1CCC(N)C(O)C1` (centres unmarked) [compound 83], the IC50 was 5900 nM.

The IC50 is the midpoint of a concentration-inhibition curve.
